# Data taken from patent US20140066369A1, “Modulators Of The GPR119 Receptor And The Treatment Of Disorders Related Thereto” (ARENA PHARMACEUTICALS, INC., priority 2011, published 2014).
# Legend:
# hGPR119 = target: T1, hGPR119 (Homo sapiens, UniProt Q8TDV5); assay: HTRF assay for direct cAMP measurement in CHO-K1 cells stably expressing the GPR119 receptor; type: cell-based
# T1 construct: expressed in transfected cells
# T1 sequence (Q8TDV5 2-335): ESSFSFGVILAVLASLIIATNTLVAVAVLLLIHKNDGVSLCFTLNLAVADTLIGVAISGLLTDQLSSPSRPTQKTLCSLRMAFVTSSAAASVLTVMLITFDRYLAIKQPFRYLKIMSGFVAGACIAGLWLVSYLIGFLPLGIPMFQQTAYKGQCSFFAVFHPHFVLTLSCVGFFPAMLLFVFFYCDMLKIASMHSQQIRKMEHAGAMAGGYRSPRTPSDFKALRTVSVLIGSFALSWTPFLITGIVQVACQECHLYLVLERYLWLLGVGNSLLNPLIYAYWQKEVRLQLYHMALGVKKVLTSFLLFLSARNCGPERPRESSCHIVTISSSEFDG
# Experimental: GPR119 agonists were evaluated in an HTRF® cAMP detection assay (Cisbio, cAMP Dynamic 2 Assay Kit; #62AM4PEJ) according to the manufacturer's instructions using CHO-K1 cells stably expressing the GPR119 receptor. CHO-K1 cells were transduced with a lentiviral vector encoding the nucleotide sequence of GPR119 (NCBI mRNA and protein reference sequences: NM_178471.2 & NP_848566). The N-terminus of the GPR119 nucleotide sequence was modified to replace the first, methionine-coding, codon with a nucleotide sequence coding for a standard, nine amino acid, hemagglutinin tag. Following transduction, cells expressing the GPR119 receptor were isolated and a single clone was isolated following standard dilution-cloning procedures. On the day of the assay, cultured CHO-GPR119 cells were harvested, suspended in assay buffer and plated into 384-well assay plates (PerkinElmer® Proxiplate® #6008280) at a density of 2,000 cells per well. A cAMP standard curve was added to each plate. Test compounds were dissolved in DMSO, serially diluted in DMSO and then diluted in assay buffer before addition to the cells. Test compounds were evaluated in triplicate, using 10-point, 5-fold serial dilutions starting at 10 μM. The final DMSO concentration in the assay was 0.5%. Compounds and cells were incubated for 1 h at room temperature and then detection reagents were added to each well (cAMP-D2 in cell lysis buffer, followed by europium cryptate-labeled anti-cAMP antibody). Plates were then incubated at room temperature for 1 h prior to reading. Time-resolved fluorescence measurements were collected on PerkinElmer Envision™ or BMG Pherastar™ microplate readers. The compound N-(2-fluoro-4-(methylsulfonyl) phenyl)-6-(4-(3-isopropyl-1,2,4-oxadiazol-5-yl)piperidin-1-yl)-5-nitropyrimidin-4-amine was used as a positive control in each runset while assay buffer containing 0.5% DMSO was used as the negative control. The HTRF® assay was used to determine EC50 values for GPR119 agonists.
# male 129SVE mice [1] = assay: Oral glucose tolerance test (oGTT), glucose homeostasis in male 129SVE mice; type: in vivo
# Experimental: Male 129SVE mice (approximately 8 weeks old) were fasted for 18 h and randomly grouped (n=6) to receive a GPR119 agonist (Compound 17) at 3 or 10 mg/kg (mg/kg body weight). The compound was delivered orally via a gavage needle (p.o., 4 mL/kg) 30 minutes prior to glucose bolus (3 g/kg) (time=−30 min in FIG. 1), with a separate group receiving vehicle (20% hydroxypropyl-beta-cyclodextrin (HPCD)) as control. At time 0 min the glucose bolus was administered. Levels of blood glucose were assessed using a glucometer (One-Touch Ultra™, LifeScan) at time −30 min (prior to compound administration), at 0 min (at time when glucose bolus was given), and at 20, 40, 60, 120 min post glucose bolus. Plasma glucose levels (Table B) and the glucose excursion curve (FIG. 1) are shown. The reduction in the glucose excursion area under the curve (AUC) from −30 to 120 min in GPR119 agonist-treated animals relative to vehicle is shown in FIG. 2.
# male 129SVE mice [2] = assay: GIP release in male 129SVE mice (plasma total GIP, ELISA); type: in vivo; settings: 3 or 30 mg/kg p.o.; blood sample after 45 min
# Experimental: Male 129SVE mice (approximately 8 weeks old) were fasted for 18 h and randomly grouped (n=6) to receive a GPR119 agonist (Compound 17) at 3 or 30 mg/kg. Compound 17 was delivered orally via a gavage needle (p.o., 4 mL/kg), and after 45 min a blood sample was collected to determine plasma total GIP levels. A separate control group received vehicle (PET (80% PEG: 10% Ethanol: 10% Tween80™)). Plasma GIP levels were determined using a GIP (total) ELISA kit from Millipore.
structure (smiles),measurement,setting,value
"CCc1cnc(N2CCN([C@H]3CC[C@H](COc4ccc(S(C)(=O)=O)cc4)CC3)CC2)nc1 [Compound 5, 5-Ethyl-2-(4-((1r,4r)-4-((4-(methylsulfonyl)phenoxy)methyl)cyclohexyl)piperazin-1-yl)pyrimidine]",EC50,hGPR119,106 nM
"CS(=O)(=O)c1ccc(OC[C@H]2CC[C@H](N3CCN(c4ncc(Cl)cn4)CC3)CC2)c(F)c1 [Compound 17, 5-Chloro-2-(4-((1r,4r)-4-((2-fluoro-4-(methylsulfonyl)phenoxy)methyl)cyclohexyl)piperazin-1-yl)pyrimidine]","Plasma Glucose, Mean","male 129SVE mice [1]; 3 mg/kg p.o., 20 min post glucose bolus",263.5 mg/dL
same,"Plasma Glucose, Mean","male 129SVE mice [1]; 3 mg/kg p.o., 40 min post glucose bolus",304.8333 mg/dL
same,"Plasma Glucose, Mean","male 129SVE mice [1]; 3 mg/kg p.o., 60 min post glucose bolus",247.6667 mg/dL
same,"Plasma Glucose, Mean","male 129SVE mice [1]; 3 mg/kg p.o., 120 min post glucose bolus",166.3333 mg/dL
same,"Plasma Glucose, Mean","male 129SVE mice [1]; 3 mg/kg p.o., time relative to glucose bolus 0 min",88.0 mg/dL
same,"Plasma Glucose, Mean","male 129SVE mice [1]; 3 mg/kg p.o., time relative to glucose bolus −30 min (prior to compound administration), oGTT, glucose 3 g/kg",67.33 mg/dL
same,"Plasma Glucose, Mean","male 129SVE mice [1]; 10 mg/kg p.o., 20 min post glucose bolus",203.8333 mg/dL
same,"Plasma Glucose, Mean","male 129SVE mice [1]; 10 mg/kg p.o., 40 min post glucose bolus",234.8333 mg/dL
same,"Plasma Glucose, Mean","male 129SVE mice [1]; 10 mg/kg p.o., 60 min post glucose bolus",186.1667 mg/dL
same,"Plasma Glucose, Mean","male 129SVE mice [1]; 10 mg/kg p.o., 120 min post glucose bolus",167.3333 mg/dL
same,"Plasma Glucose, Mean","male 129SVE mice [1]; 10 mg/kg p.o., time relative to glucose bolus 0 min",96.33 mg/dL
same,"Plasma Glucose, Mean","male 129SVE mice [1]; 10 mg/kg p.o., time relative to glucose bolus −30 min (prior to compound administration), oGTT, glucose 3 g/kg",68.5 mg/dL
same,Effect on blood glucose after challenge with glucose,"male 129SVE mice [1]; 3 or 10 mg/kg p.o., 30 minutes prior to glucose bolus, relative to vehicle",lowered blood glucose
same,Effect on GIP release (plasma total GIP),male 129SVE mice [2],stimulated the release of GIP
same,EC50,hGPR119,51.8 nM
"N#Cc1ccc(OC[C@H]2CC[C@H](N3CCN(c4ncc(C(F)(F)F)cn4)CC3)CC2)cc1 [Compound 23, 4-(((1r,4r)-4-(4-(5-(Trifluoromethyl)pyrimidin-2-yl)piperazin-1-yl)cyclohexyl)methoxy) benzonitrile]",EC50,hGPR119,1380 nM
"Cc1nc(S(C)(=O)=O)ccc1OC[C@H]1CC[C@H](N2CCN(c3ncc(C(F)(F)F)cn3)C[C@@H]2C)CC1 [Compound 26, 2-((S)-3-Methyl-4-((1r,4S)-4-((2-methyl-6-(methylsulfonyl)pyridin-3-yloxy)methyl)cyclohexyl)piperazin-1-yl)-5-(trifluoromethyl)pyrimidine]",EC50,hGPR119,600 nM
"C[C@@H]1CN(c2ncc(Cl)cn2)CCN1[C@H]1CC[C@H](COc2ccc(S(C)(=O)=O)cc2F)CC1 [Compound 31, 5-Chloro-2-((R)-4-((1r,4R)-4-((2-fluoro-4-(methylsulfonyl)phenoxy)methyl)cyclohexyl)-3-methylpiperazin-1-yl)pyrimidine]",EC50,hGPR119,70.1 nM
"CN(C)C(=O)c1ccc(OC[C@H]2CC[C@H](N3CCN(C(=O)OC(C)(C)C)CC3)CC2)c(F)c1 [Compound 38, tert-Butyl 4-((1r,4r)-4-((4-(dimethylcarbamoyl)-2-fluorophenoxy)methyl)cyclohexyl)piperazine-1-carboxylate]",EC50,hGPR119,219 nM
"C[C@@H](OC(=O)N1CCN([C@H]2CC[C@H](COc3ccc(-n4cnnn4)cc3F)CC2)CC1)C(F)(F)F [Compound 44, (R)-1,1,1-Trifluoropropan-2-yl 4-((1r,4R)-4-((2-fluoro-4-(1H-tetrazol-1-yl)phenoxy)methyl)cyclohexyl) piperazine-1-carboxylate]",EC50,hGPR119,22.2 nM
"CS(=O)(=O)c1ccc(OC[C@H]2CC[C@H](N3CCN(c4nc(C(F)(F)F)no4)CC3)CC2)c(F)c1 [Compound 64, 5-(4-((1r,4r)-4-((2-Fluoro-4-(methylsulfonyl)phenoxy)methyl)cyclohexyl)piperazin-1-yl)-3-(trifluoromethyl)-1,2,4-oxadiazole]",EC50,hGPR119,13.7 nM
